Patent publication US10702489B2, “Treatment of nervous system disorders using combinations of RXR agonists and thyroid hormones” (IO Therapeutics, Inc., priority 2015, dated 2020)

Key:
B6 mice with EAE = test: EAE dose titration in B6 mice with spleen and CNS analysis; type: in vivo, mouse
Description: A dose titration experiment was also conducted in EAE mice. EAE was induced in 28 B6 mice with MOG/CFA and PT as above. Mice were scored on day 7 as indicated above and divided into groups by score so means are as equal as possible.
At the completion of the experiment, the vehicle control and 200 μg/day groups were euthanized and spleen and CNS samples obtained.

[1] = system: C57BL/6 (B6) mice with EAE; test: CNS infiltrating cells in EAE B6 mice; type: in vivo, mouse; details: day 20 after immunization
Description: To determine whether a RXR agonist can reduce central nervous system (CNS) infiltrating cells, C57BL/6 (B6) mice were treated as described in Example 6. On day 20 after immunization, mice were sacrificed and perfused with phosphate buffered saline (PBS). Brain and spinal cord tissue was isolated, digested with DNase and LIBERASE DL® (Roche Diagnostics, Indianapolis, Ind.) for 30 minutes, and homogenized through 70 micron nylon mesh filters. Resulting cells were placed over a Percoll gradient to remove myelin. The remaining cells (microglia and CNS infiltrating cells) were counted, stained for molecules of interest, and run on a flow cytometer. Based on the frequencies obtained by FACS of these cell populations, total cell numbers of CNS infiltrating leukocytes expressing CD45, including CD4^+ T cells and CD11c^+ CD11b^+ myeloid dendritic cells (DC), were calculated.

SJL mice with EAE = test: EAE in SJL mice, PLP peptide; type: in vivo, mouse
Description: To determine whether a RXR agonist can attenuate multiple sclerosis, SJL mice were immunized to induce EAE by s.c. injection at the base of their spine with 200 μL of adjuvant containing 200 μg proteolipid proteins (139-151) (PLP peptide; Peptides International, Louisville, Ky.) and 400 μg of non-viable M. tuberculosis H37 desiccate emulsified in a mixture of incomplete Freund's adjuvant and PBS. Mice were also given 150 ng of pertussis toxin in PBS i.p. on the same day as PLP emulsion injection and 2 days later. […] Mice were scored using the scale described in Example 3.

Nurr1/RXR heterodimer = molecular target: T1, Nurr1/RXR heterodimer (Homo sapiens, UniProt P19793); test: receptor transactivation assay Nurr1/RXR; type: cell-based; details: COS7 cells
T1 construct: full length Nurr-1 with or without full-length RXRα plasmid; expressed in transfected cells; host or cells: COS7
Excerpt: For PPARγ: CV-1 cells were transfected with 3×(rAOX/DR1)-tk-Luc reporter gene and an expression vector for PPARγ. For FXR:CV-1 cells were transfected with 3×(IBABP/IRI)-tk-Luc reporter gene and vectors for FXR and RXRα. For LXR:CV-1 cells were transfected with 3×(PLTP/LXRE)-tk-Luc reporter gene with vectors for LXRα or LXRβ. For Nurr1: COS7 cells were transfected with 3×NBRE-tk-luc reporter gene and full length Nurr-1 with or without full-length RXRα plasmid. […] Luciferase data were normalized to co-transfected β-gal activity. Luciferase activity was expressed as percent of maximal activity obtained using specific agonists. Rosiglitazone (PPARγ), GW4064 (FXR), T0901317 (LXR).

[2] = system: one year old rats, caudal cerebellar peduncle lesions; test: focal ethidium bromide induced rat model of demyelination; type: in vivo; details: IRX4204 10 mg/kg/day oral, thyroxine 20 ng/g s.c., 14 days
Description: The experiment uses rats of relatively advanced age (1 year) since such rats undergo remyelination in a less efficient manner, thereby providing data that are more relevant to the clinical treatment of human patients with multiple sclerosis or other demyelination disorders.
Focal demyelination is induced in one year old rats (approximately 300 g in weight) by injecting stereotactically 5 μl of ethidium bromide solution (0.01% vol/vol in saline) in a bilateral manner into the caudal cerebellar peduncles (CCP). […] The rats are killed on day 24 post-ethidium bromide treatment for analysis of remyelination by quantitative polymerase chain reaction (qPCR) and microscopy.

[3] = system: early Parkinson's Disease subjects; test: open-label clinical study in early Parkinson's Disease subjects; type: in vivo, human; details: for Change in TSH / Total Motor Change / Total UPDRS Change: 15 days
Description: An open-label, single site clinical study of early Parkinson's Disease subjects treated with IRX4204 was conducted to determine whether the preclinical promise of IRX4204 as a disease modifying agent for PD will translate to the clinical setting upon treatment of early PD patients with IRX4204 as determined by Unified Parkinson's Disease Rating Scale (UPDRS) measurements and safety assessments. The changes in UPDRS scores were correlated with circulating thyroxine levels.
Five subjects were recruited for each of the three dose levels. All fifteen subjects completed 15 days of dosing.
All subjects ([…]) completed 15 days of dosing and returned to the clinic at the end of 2 weeks (day 15-17) for UPDRS score determination and safety assessments including determination of plasma thyroxine (T4) levels. Percent changes in Total Motor scores, Total UPDRS scores and plasma T4 values were determined according to the following: […]

[4] = system: rat 6-OHDA induced Parkinson Disease (PD) model; test: rat 6-OHDA induced Parkinson Disease model, paw placement (cylinder test); type: in vivo; details: day 24; IRX4204 10 mg/kg PO, T3 1.5 μg/kg and T4 9 μg/kg SC
Description: The paw placement (cylinder test) was used for assessment of the damage. This test assessed a rat's independent forelimb use to support the body against the walls of a cylindrical enclosure. The test took advantage of the animals' innate drive to explore a novel environment by standing on the hind limbs and leaning towards the enclosing walls.
To perform this test, rats were placed individually in a glass cylinder (21 cm diameter, 34 cm height) and wall exploration was recorded for 3 minutes. No habituation to the cylinder prior to recording was allowed.
The statistical analysis was performed as ratio between the intact and impaired legs (R/L ratio). The ratio was expressed as the values of intact right+both forelimbs divided by the values of impaired left +both forelimbs. A lower value of the ratio means greater healing of the 6-OHDA induced brain damage.
Once a week during three weeks (study days 10, 17 and 24), the animals were re-tested for their performance in the paw placement test.

[5] = system: mouse oligodendrocyte progenitor cells (OPCs); test: mouse OPC differentiation with IRX4204 and T3; type: cell-based; details: 5-day treatment; IRX4204 10, 1, 0.1 nM
Description: OPCs were derived from plp-EGFP expressing mice.
Therapeutic agents were tested in 96-well plates (6 wells per concentration). […] All media contained 0.1% DMSO. At the end of the 5-day treatment, cells were imaged on Cellomics in two channels and algorithms were used to count nuclei and EGFP+oligodendrocytes.

[6] = 200 μg/day, restimulation with PMA/Ionomycin
[7] = 50 μg i.p. every other day from day 7, n=6

T1 sequence (P19793 whole entry): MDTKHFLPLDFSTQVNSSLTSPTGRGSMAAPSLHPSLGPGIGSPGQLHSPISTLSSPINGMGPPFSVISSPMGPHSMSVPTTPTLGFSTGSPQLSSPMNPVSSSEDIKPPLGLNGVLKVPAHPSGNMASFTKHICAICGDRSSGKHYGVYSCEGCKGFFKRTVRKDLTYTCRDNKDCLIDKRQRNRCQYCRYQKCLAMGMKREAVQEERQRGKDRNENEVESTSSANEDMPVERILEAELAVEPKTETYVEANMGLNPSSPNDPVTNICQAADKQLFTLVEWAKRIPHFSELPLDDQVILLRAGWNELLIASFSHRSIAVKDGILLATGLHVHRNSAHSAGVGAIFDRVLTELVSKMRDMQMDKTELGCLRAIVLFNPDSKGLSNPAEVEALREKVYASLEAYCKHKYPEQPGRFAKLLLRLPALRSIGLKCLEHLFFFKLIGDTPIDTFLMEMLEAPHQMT
T1 sequence (P43354 whole entry partner): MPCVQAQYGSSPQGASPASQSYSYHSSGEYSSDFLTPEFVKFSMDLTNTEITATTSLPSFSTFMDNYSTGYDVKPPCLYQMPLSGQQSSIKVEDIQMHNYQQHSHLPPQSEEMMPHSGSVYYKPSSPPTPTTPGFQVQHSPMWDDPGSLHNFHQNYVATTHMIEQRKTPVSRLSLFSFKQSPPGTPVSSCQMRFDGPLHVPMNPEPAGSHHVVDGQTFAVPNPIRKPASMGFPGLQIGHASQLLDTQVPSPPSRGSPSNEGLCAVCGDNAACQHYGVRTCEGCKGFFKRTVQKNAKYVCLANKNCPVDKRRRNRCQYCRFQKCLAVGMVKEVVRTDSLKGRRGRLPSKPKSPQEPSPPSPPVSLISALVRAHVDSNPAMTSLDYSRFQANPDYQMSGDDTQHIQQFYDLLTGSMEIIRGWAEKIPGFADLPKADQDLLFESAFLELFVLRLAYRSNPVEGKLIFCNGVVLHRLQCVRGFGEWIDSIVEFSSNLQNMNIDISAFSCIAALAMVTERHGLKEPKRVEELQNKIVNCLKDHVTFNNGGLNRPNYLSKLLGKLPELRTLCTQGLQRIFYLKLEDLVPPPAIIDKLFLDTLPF

SMILES: CC(/C=C/[C@@H]1C[C@]1(C)c1ccc2c(c1)C(C)(C)CCC2(C)C)=C\C(=O)O [IRX4204, 3,7-dimethyl-6(S),7(S)-methano,7-[1,1,4,4-tetramethyl-1,2,3,4-tetrahydronaphth-7-yl]2(E),4(E) heptadienoic acid]
- disease overall (EAE score) (B6 mice with EAE; 50 μg, 100 μg or 200 μg every day from day 8): significantly less disease overall
- CCR6 expression on CD4 T cells, spleen (B6 mice with EAE; 200 μg/day): lowered
- CD4+ CD25hi cells (number), spleen (B6 mice with EAE; 200 μg/day): reduced
- co-expression of IFNg and IL-17A by CD4 T cells in CNS (B6 mice with EAE; 200 μg/day): not significantly different between groups
- frequency of CD4+ CD25hi cells, spleen (B6 mice with EAE; 200 μg/day): not altered
- total number of effector and memory CD4 T cells (CD44), spleen (B6 mice with EAE; 200 μg/day): decreased
- total number of infiltrating CD4 T cells in the CNS (B6 mice with EAE; 200 μg/day): reduced
- total number of recently activated CD4 T cells (CD69 and CD44), spleen (B6 mice with EAE; 200 μg/day): decreased
- IFNγ, CNS infiltrating lymphocytes (B6 mice with EAE; [6]): significantly reduced
- TNF, CNS infiltrating lymphocytes (B6 mice with EAE; [6]): significantly reduced
- infiltration of CD4+ cells in to the CNS [1]: significant reduction
- infiltration of CD11c+ CD11b+ cells (myeloid DC) in to the CNS [1]: significant reduction
- Mean Maximum Score (SJL mice with EAE; 50 μg i.p. every other day from day 7): 1.5 ± 1.4
- Death from Disease (SJL mice with EAE; [7]): 0/6
- Disease Incidence (SJL mice with EAE; [7]): 4/6
- symptoms of EAE (scores of disease severity) (SJL mice with EAE; 50 μg i.p. every other day, to day 14): significantly reduces the symptoms of EAE
- activation of Nurr1/RXR permissive heterodimer (Nurr1/RXR heterodimer): selectively activates
- Mbp expression (real-time qPCR of lesion samples) [2]: increase
- Nkx2.2+ oligodendrocyte precursor cells (OPCs) in lesions [2]: increased
- Pdgfra expression (real-time qPCR of lesion samples) [2]: increase
- density of CC1+ differentiated oligodendrocytes in lesions [2]: increased
- density of Olig2+ oligodendrocyte lineage cells in lesions [2]: increased
- remyelinated axons (ultrastructural analyses of CCP lesions) [2]: more remyelinated axons than vehicle treatment
- Change in TSH ([3]; 5 mg/day): −28.9%
- Total Motor Change ([3]; 5 mg/day): −31.4%
- Total UPDRS Change ([3]; 5 mg/day): −18.7%
- Change in TSH ([3]; 10 mg/day): −36.6%
- Total UPDRS Change ([3]; 10 mg/day): −13.6%
- reduction in Total UPDRS scores ([3]; 20 mg/day): 6.6%
- reduction of plasma T4 ([3]; 20 mg/day): 98.8%
- Change in TSH ([3]; 20 mg/day): −98.8%
- Total Motor Change ([3]; 20 mg/day): −14.5%
- mean body weight [4]: 157.17±2.93%
- oligodendrocyte production (EGFP+ oligodendrocytes) [5]: clear dose-responses
